US6492578B1, “Expression of herbicide tolerance genes in plant plastids” (Calgene LLC, priority 1998, dated 2002)
Read-outs that look alike come from different tables or passages of the source.

What was measured:
[1] = tested on: 5177 transformed tobacco lines and control lines; experiment: Norflurazon resistance analysis (watering with Norflurazon solution); assay type: in vivo; conditions: 3 μM Norflurazon solution
Experimental: An experiment was set up to determine the efficacy of the Crt I trait with respect to resistance to the herbicide Norflurazon. Three 5177 transformed lines, 74-1B-P, 74-2-A, and 74-7-C and three control lines were planted. Plants were grown for seven weeks and then watered with a 3 μM Norflurazon solution. Plants negative for the presence of the crtI plastid-borne gene were bleached by Norflurazon treatment, positive plants stayed green and continued to grow.

Nb2 cell line = experiment: Nb2 cell proliferation bioactivity assay (MTS); assay type: cell-based; conditions: pH adjusted and centrifuged extract of pMON38794 tobacco, 48 hrs, MTS (FIG. 5)
Experimental: Bioactivity of the pH adjusted and centrifuged extract was tested using cells from an Nb2 cell line. These cells proliferate in the presence of growth hormone and other […] type compounds. The assay involves putting various concentrations of growth hormone-containing extract into a 96 well plate. Then a constant amount of cells are added to each well. The plate is incubated for 48 hrs and then a reagent called MTS is added. Metabolizing cells take up the MTS and convert it to a blue colored substance. The more cells there are the more blue color in the well. The blue color is measured using a spectrophotometer. The number of cells should be proportional to the concentration of growth hormone in the media. At some high concentration one expects that the cells will become saturated with growth hormone and that the dose response will level off. At very low hGH concentrations essentially no enhanced growth is seen.

[2] = tested on: nontransgenic wild type tobacco control, Havanna; experiment: In vitro glyphosate tolerance: shoot regeneration from leaf explants on TSO medium with glyphosate; assay type: cell-based, Nicotiana tabacum cv. Havana; conditions: for Number Regenerating 3 Weeks / Number Regenerating 6 Weeks: 10 explants
Experimental: (§1) A transplastomic tobacco line homoplasmic for the construct pMON38773 was tested in vitro to determine the highest level of glyphosate tolerance. Explant tissue was prepared from leaf pieces of nontransgenic wild type tobacco control, Havanna, plants and the homoplasmic tobacco line 38773-6 and cultured for regeneration of shoots on TSO medium (described above) supplemented with glyphosate levels of 50 μM, 75 μM, 100 μM, 150 μM and 200 μM. The number of explants producing shoots was determined at 3 weeks and 6 weeks after explant preparation and culturing on glyphosate containing medium.

[3] = tested on: homoplasmic tobacco line 38773-6; experiment: as above; assay type: cell-based, Nicotiana tabacum cv. Havana
Experimental: as §1

EPSPS enzyme [4] = assay type: biochemical
Experimental: (§2) Methods for the analysis of EPSPS enzyme activity are described in Padgette et al. (J. Biol. Chem. (1988)263:1798-1802 and Arch. Biochem. Biophys. (1987)258:564-573) and Wibbenmeyer et al. (Biochem. Biophys. Res. Commun. (1988)153:760-766).
(§3) In addition, other transplastomic lines were analyzed for tolerance to spraying with various levels of glyphosate as described above. Specific activity is measured as the amount of exogenously added Phosphoenol pyruvate (PEP) converted to […] per unit protein in the plant extract. Addition of glyphosate tests sensitivity of the EPSPS enzyme to glyphosate.

EPSPS enzyme [5] = molecular target: T1, EPSPS enzyme (Agrobacterium sp., UniProt Q9R4E4); assay type: biochemical
T1 construct: from tissue; host or cells: extracts of wild-type and transplastomic tobacco plants
T1 sequence (Q9R4E4 whole entry): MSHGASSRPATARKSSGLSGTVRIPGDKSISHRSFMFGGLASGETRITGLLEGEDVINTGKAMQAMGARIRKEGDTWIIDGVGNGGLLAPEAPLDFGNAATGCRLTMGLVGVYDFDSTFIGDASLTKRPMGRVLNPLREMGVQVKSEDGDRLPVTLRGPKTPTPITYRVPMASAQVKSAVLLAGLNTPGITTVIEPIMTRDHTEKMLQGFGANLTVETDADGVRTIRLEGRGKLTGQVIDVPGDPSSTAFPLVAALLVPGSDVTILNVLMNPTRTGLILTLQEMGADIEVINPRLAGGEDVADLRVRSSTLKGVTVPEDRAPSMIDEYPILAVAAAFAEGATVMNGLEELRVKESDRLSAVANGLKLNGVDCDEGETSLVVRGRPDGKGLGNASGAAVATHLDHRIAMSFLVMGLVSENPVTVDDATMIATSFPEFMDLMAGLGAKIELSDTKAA
Experimental: as §2, §3

[6] = tested on: transplastomic (and nuclear pMON10154) tobacco lines expressing EPSPS; experiment: Glyphosate spray tolerance of other lines expressing EPSPS; assay type: in vivo
Experimental: (§4) Homoplasmic tobacco plants of the line 38773-6 are sprayed with glyphosate using a track sprayer at concentrations corresponding to 0 oz/acre, 16 oz/acre, 32 oz/acre and 64 oz/acre to test for whole plant tolerance. Plant height was measured before and after s praying with glyphosate. The vegetative injury data was collected two weeks after spraying, while the reproductive injury data was collected at plant maturity.
as §3

[7] = tested on: Homoplasmic tobacco plants of the line 38773-6; experiment: Whole plant glyphosate spray test (track sprayer); assay type: in vivo
Experimental: as §4
(§5) Tolerance is characterized by the continued growth and greening of tissues sprayed with glyphosate. However, as the concentration of glyphosate applied increased, there was a corresponding increase in the level of vegetative injury.

[8] = tested on: Wild type tobacco (nontransformed control plants); experiment: Whole plant glyphosate spray test (track sprayer); assay type: in vivo
Experimental: as §4, §5

[9] = tested on: transplastomic tobacco lines containing EPSPS genes; experiment: In vitro glyphosate selection of shoots from plastid transformation with EPSPS constructs; assay type: cell-based
Experimental: as §1
Additional transplastomic lines were tested in vitro for glyphosate tolerance as bed above.
The numbers in parentheses are the number of shoots resistant to selection at 1 mM glyphosate.

[10] = line 38773-6, glyphosate 50 μM, 8 explants
[11] = line 38773-6, glyphosate 75 μM, 18 explants
[12] = line 38773-6, glyphosate 100 μM, 17 explants
[13] = line 38773-6, glyphosate 150 μM, 18 explants
[14] = line 38773-6, glyphosate 200 μM, 16 explants
[15] = line pMON10154 (nuclear), glyphosate spray
[16] = line pMON30123, glyphosate spray
[17] = line pMON30130, glyphosate spray
[18] = line pMON38773, glyphosate spray
[19] = line pMON38798, glyphosate spray
[20] = line pMON45201, glyphosate spray

CNc1cnn(-c2cccc(C(F)(F)F)c2)c(=O)c1Cl [Norflurazon]
Norflurazon resistance ([1]; control plants): susceptible | Result (Norflurazon resistance) ([1]; line 74-1B-P (homoplasmic 5177)): Resistant | Result (Norflurazon resistance) ([1]; line 74-2-A (homoplasmic 5177)): Resistant | Result (Norflurazon resistance) ([1]; line 74-7-C (homoplasmic 5177)): Resistant | Result (Norflurazon resistance) ([1]; line 75-5D-A (Control)): Susceptible | Result (Norflurazon resistance) ([1]; line 2560A Xanthi (Control)): Susceptible | Result (Norflurazon resistance) ([1]; line Xanthi (Control), plants grown seven weeks): Susceptible | Norflurazon resistance ([1]; three homoplasmic 5177 tobacco lines): resistant

hGH: Human Growth Hormone expressed from tobacco plastids (pMON38794), tested as pH adjusted and centrifuged leaf extract
bioactivity: absorbance vs hGH concentration (Nb2 cell line): sigmoidal shape

O=C(O)CNCP(=O)(O)O [glyphosate, N-phosphonomethylglycine]
% Explant Regeneration ([2]; glyphosate 50 μM): 0% | Number Regenerating 3 Weeks ([2]; glyphosate 50 μM): 0 | Number Regenerating 6 Weeks ([2]; glyphosate 50 μM): 0 | % Explant Regeneration ([2]; glyphosate 75 μM): 0% | Number Regenerating 3 Weeks ([2]; glyphosate 75 μM): 0 | Number Regenerating 6 Weeks ([2]; glyphosate 75 μM): 0 | % Explant Regeneration ([2]; glyphosate 100 μM): 0% | Number Regenerating 3 Weeks ([2]; glyphosate 100 μM): 0 | Number Regenerating 6 Weeks ([2]; glyphosate 100 μM): 0 | % Explant Regeneration ([2]; glyphosate 150 μM): 0% | Number Regenerating 3 Weeks ([2]; glyphosate 150 μM): 0 | Number Regenerating 6 Weeks ([2]; glyphosate 150 μM): 0 | % Explant Regeneration ([2]; glyphosate 200 μM): 0% | Number Regenerating 3 Weeks ([2]; glyphosate 200 μM): 0 | Number Regenerating 6 Weeks ([2]; glyphosate 200 μM): 0 | % Explant Regeneration ([3]; line 38773-6, glyphosate 50 μM): 100% | Number Regenerating 3 Weeks [3, 10]: 5 | Number Regenerating 6 Weeks [3, 10]: 8 | % Explant Regeneration ([3]; line 38773-6, glyphosate 75 μM): 100% | Number Regenerating 3 Weeks [3, 11]: 14 | Number Regenerating 6 Weeks [3, 11]: 18 | % Explant Regeneration ([3]; line 38773-6, glyphosate 100 μM): 88% | Number Regenerating 3 Weeks [3, 12]: 12 | Number Regenerating 6 Weeks [3, 12]: 15 | % Explant Regeneration ([3]; line 38773-6, glyphosate 150 μM): 89% | Number Regenerating 3 Weeks [3, 13]: 10 | Number Regenerating 6 Weeks [3, 13]: 16 | % Explant Regeneration ([3]; line 38773-6, glyphosate 200 μM): 86% | Number Regenerating 3 Weeks [3, 14]: 8 | Number Regenerating 6 Weeks [3, 14]: 15 | glyphosate level tolerated in vitro ([3]; tobacco expressing EPSPS in plastids (pMON38773), shoot regeneration): at least 200 μM | SPECIFIC ACTIVITY (nmol/min/mg) +1 mM gly (EPSPS enzyme [4]; Wild-type plant extract, No gly: 3.4): 0 nmol/min/mg | SPECIFIC ACTIVITY (nmol/min/mg) +1 mM gly (EPSPS enzyme [4]; line pMON30123 extract, No gly: 4.0): 0 nmol/min/mg | SPECIFIC ACTIVITY (nmol/min/mg) +1 mM gly (EPSPS enzyme [4]; line pMON30130 extract, No gly: 6.2): 0 nmol/min/mg | SPECIFIC ACTIVITY (nmol/min/mg) +1 mM gly (EPSPS enzyme [4]; line pMON38798 extract, No gly: 17.2): 14.7 nmol/min/mg | SPECIFIC ACTIVITY (nmol/min/mg) +1 mM gly (EPSPS enzyme [4]; line pMON45204 extract, No gly: 339.9): 371.8 nmol/min/mg | SPECIFIC ACTIVITY (nmol/min/mg) +1 mM gly (EPSPS enzyme [5]; line pMON10154 (nuclear CP4 control) extract, No gly: 19.0): 18.4 nmol/min/mg | SPECIFIC ACTIVITY (nmol/min/mg) +1 mM gly (EPSPS enzyme [5]; line pMON38773 extract, No gly: 16.7): 6.7 nmol/min/mg | Reproductive tolerance (oz/acre) [6, 15]: 64 oz/acre | Vegetative tolerance (oz/acre) [6, 15]: 128 oz/acre | Reproductive tolerance (oz/acre) [6, 16]: 0 oz/acre | Vegetative tolerance (oz/acre) [6, 16]: 0 oz/acre | Reproductive tolerance (oz/acre) [6, 17]: 0 oz/acre | Vegetative tolerance (oz/acre) [6, 17]: 0 oz/acre | Reproductive tolerance (oz/acre) [6, 18]: 16 oz/acre | Vegetative tolerance (oz/acre) [6, 18]: 32 oz/acre | Reproductive tolerance (oz/acre) [6, 19]: 16 oz/acre | Vegetative tolerance (oz/acre) [6, 19]: 32 oz/acre | Reproductive tolerance (oz/acre) [6, 20]: 32 oz/acre | Vegetative tolerance (oz/acre) [6, 20]: 32 oz/acre | glyphosate level tolerated ([6]; subsequent experiments with additional transformed transplastomic lines): 64 oz/acre | glyphosate concentration tolerated (vegetative tissue injury) ([7]; initial results, homoplasmic tobacco lines sprayed): 16 oz/acre | glyphosate rate with a good level of tolerance ([7]; transplastomic lines, spray): 32 oz/acre | Reproductive tolerance (oz/acre) ([8]; Wild-type, glyphosate spray): 0 oz/acre | Vegetative tolerance (oz/acre) ([8]; Wild-type, glyphosate spray): 0 oz/acre | susceptibility to sprayed glyphosate ([8]; nontransformed control plants, glyphosate concentrations as low as 16 oz/acre): highly susceptible | glyphosate selection level tolerated by generated tobacco lines ([9]; in vitro selection, Table 5 lines): 1 mM | No. of shoots Gly 50 uM(+) ([9]; pMON38766 (T7), 6 Spec/strep (+) shoots): 0 | No. of shoots Gly 50 uM(+) ([9]; pMON38766 (Wild), 1 Spec/strep (+) shoot): 0 | No. of shoots Gly 50 uM(+) ([9]; pMON38773 (Wild), 9 Spec/strep (+) shoots): 5 | No. of shoots positive at 1 mM glyphosate ([9]; pMON38773 (Wild), number in parentheses): 1 | No. of shoots Gly 50 uM(+) ([9]; pMON38793, 8 Spec/strep (+) shoots): 0 | No. of shoots Gly 50 uM(+) ([9]; pMON38796, 4 Spec/strep (+) shoots): 0 | No. of shoots Gly 50 uM(+) ([9]; pMON38797 (Wild), 2 Spec/strep (+) shoots): 0 | No. of shoots Gly 50 uM(+) ([9]; pMON38798, 6 Spec/strep (+) shoots): 6 | No. of shoots Gly 50 uM(+) ([9]; pMON45201, 9 Spec/strep (+) shoots): 3
